Results taken from US10266609B2, “Immunomodulating beta-1,6-D-glucans” (Innate Biotherapeutics, LLC, priority 2014, dated 2019).

The compounds below were run on Anti-β-1,6-Glucan IgG antibodies (affinity purified from IVIG, Baxter) (assay: ELISA: binding of oligosaccharides to anti-β-1,6-glucan antibodies). Details: plate coated with oligosaccharide in PBS; 40 ug/mL anti-Beta 1,6 Glucan IgG; anti-human IgG-HRP, TMB, absorbance at 620 nm.
Protocol: Binding of oligosaccharides to anti-β-1,6-glucan antibodies is performed as described in the following protocol.
• 1. […] Anti-β-1,6-Glucan IgG antibodies (affinity purified from IVIG, Baxter) • 6. […] PBS-Tween buffer (PH 7.2, 0.05% Tween 20, Kpl cat #51-12-01) II. Method: Detection of Anti-Beta Glucan IgG by ELISA • 1. Coat plate with oligosaccharides in PBS overnight at 4° C. • 2. Wash 3 times with 250 uL of PBS-Tween • 3. Empty plate • 4. Block plate with 200 uL of Casein for 1 hour at room temperature • 5. Empty plate • 6. Add 40 ug/mL anti-Beta 1,6 Glucan IgG (4 ug/well) in Casein • 7. Incubate for 45 min at room temperature • 8. Wash 3 times with 250 uL of PBS-Tween • 9. Empty plate • 10. Add detection antibody: anti-human IgG-HRP at 1:5000—in casein. Incubate for 45 min at room temperature in the dark • 11. Wash 5 times with 250 uL of PBS-Tween • 12. Empty plate • 13. Add 100 uL of one step ultra TMB • 14. Measure the absorbance at 620 nm every 1 min for 60 min Tables 1-3 provide ELISA assay data for certain glucan compounds.
Further: key: a plus (+) sign indicates that the glucan was active in the assay; a minus (−) sign indicates that the glucan was not active; the '+/−' symbol indicates inconclusive results.

| ELISA assay data: glucan active in detection of anti-beta glucan IgG | Compound |
| --- | --- |
| + | OC[C@H]1O[C@@H](OC[C@H]2O[C@@H](OC[C@H]3O[C@@H](OC[C@H]4O[C@@H](OC[C@H]5O[C@@H](OC[C@H]6O[C@@H](OC[C@H]7O[C@@H](OC[C@H]8O[C@@H](OC[C@H]9O[C@@H](OC[C@H]%10OC(O)[C@H](O)[C@@H](O)[C@@H]%10O)[C@H](O)[C@@H](O)[C@@H]9O)[C@H](O)[C@@H](O)[C@@H]8O)[C@H](O)[C@@H](O)[C@@H]7O)[C@H](O)[C@@H](O)[C@@H]6O)[C@H](O)[C@@H](O)[C@@H]5O)[C@H](O)[C@@H](O)[C@@H]4O)[C@H](O)[C@@H](O)[C@@H]3O)[C@H](O)[C@@H](O)[C@@H]2O)[C@H](O)[C@@H](O)[C@@H]1O (stereo partly drawn) [OH, n=10, [O-β-D-glucopyranosyl-1,6-]9-D-glucose] |
| + | CN(Cc1ccc(C(=O)O)cc1)CC(O)[C@@H](O)[C@H](O)[C@H](O)CO[C@@H]1O[C@H](CO[C@@H]2O[C@H](CO[C@@H]3O[C@H](CO[C@@H]4O[C@H](CO[C@@H]5O[C@H](CO[C@@H]6O[C@H](CO)[C@@H](O)[C@H](O)[C@H]6O)[C@@H](O)[C@H](O)[C@H]5O)[C@@H](O)[C@H](O)[C@H]4O)[C@@H](O)[C@H](O)[C@H]3O)[C@@H](O)[C@H](O)[C@H]2O)[C@@H](O)[C@H](O)[C@H]1O (mixture of isomers) [N(Me),N(CH2)4-BzOH, n=6] |
| + | COC1O[C@H](CO[C@@H]2O[C@H](CO[C@@H]3O[C@H](CO[C@@H]4O[C@H](CO[C@@H]5O[C@H](CO[C@@H]6O[C@H](CO[C@@H]7O[C@H](CO[C@@H]8O[C@H](CO)[C@@H](O)[C@H](O)[C@H]8O)[C@@H](O)[C@H](O)[C@H]7O)[C@@H](O)[C@H](O)[C@H]6O)[C@@H](O)[C@H](O)[C@H]5O)[C@@H](O)[C@H](O)[C@H]4O)[C@@H](O)[C@H](O)[C@H]3O)[C@@H](O)[C@H](O)[C@H]2O)[C@@H](O)[C@H](O)[C@H]1O (stereo partly drawn) [OCH3, n=8, methyl [O-β-D-glucopyranosyl-1,6]7-D-glucopyranoside] |
| + | OC[C@H]1O[C@@H](OC[C@H]2O[C@@H](OC[C@H]3O[C@@H](OC[C@H]4O[C@@H](OC[C@H]5O[C@@H](OC[C@H]6O[C@@H](OC[C@H]7OC(OCCCl)[C@H](O)[C@@H](O)[C@@H]7O)[C@H](O)[C@@H](O)[C@@H]6O)[C@H](O)[C@@H](O)[C@@H]5O)[C@H](O)[C@@H](O)[C@@H]4O)[C@H](O)[C@@H](O)[C@@H]3O)[C@H](O)[C@@H](O)[C@@H]2O)[C@H](O)[C@@H](O)[C@@H]1O (stereo partly drawn) [α-O(CH2)2Cl, n=7, 2-chloroethyl [O-β-D-glucopyranosyl-1,6]6-D-glucopyranoside] |
| + | COC1O[C@H](CO[C@@H]2O[C@H](CO[C@@H]3O[C@H](CO)[C@@H](O)[C@H](O)[C@H]3O)[C@@H](O)[C@H](O)[C@H]2O)[C@@H](O)[C@H](O)[C@H]1O (stereo partly drawn) [OCH3, n=3, methyl [O-β-D-glucopyranosyl-1,6]2-D-glucopyranoside] |
| + | CN(CCCCCN)CC(O)[C@@H](O)[C@H](O)[C@H](O)CO[C@@H]1O[C@H](CO[C@@H]2O[C@H](CO[C@@H]3O[C@H](CO)[C@@H](O)[C@H](O)[C@H]3O)[C@@H](O)[C@H](O)[C@H]2O)[C@@H](O)[C@H](O)[C@H]1O (mixture of isomers) [N(Me),N(CH2)5NH2, n=3] |
| + | O=C(O)C1CCN(CC(O)[C@@H](O)[C@H](O)[C@H](O)CO[C@@H]2O[C@H](CO[C@@H]3O[C@H](CO[C@@H]4O[C@H](CO[C@@H]5O[C@H](CO[C@@H]6O[C@H](CO)[C@@H](O)[C@H](O)[C@H]6O)[C@@H](O)[C@H](O)[C@H]5O)[C@@H](O)[C@H](O)[C@H]4O)[C@@H](O)[C@H](O)[C@H]3O)[C@@H](O)[C@H](O)[C@H]2O)C1 (mixture of isomers) [3-pyrrolidineCO2H, n=5] |
| + | [N-]=[N+]=NCCO[C@@H]1O[C@H](CO[C@@H]2O[C@H](CO[C@@H]3O[C@H](CO[C@@H]4O[C@H](CO[C@@H]5O[C@H](CO)[C@@H](O)[C@H](O)[C@H]5O)[C@@H](O)[C@H](O)[C@H]4O)[C@@H](O)[C@H](O)[C@H]3O)[C@@H](O)[C@H](O)[C@H]2O)[C@@H](O)[C@H](O)[C@H]1O [β-O(CH2)2N3, n=5, 2-azidoethyl [O-β-D-glucopyranosyl-1,6]4-β-D-glucopyranoside] |
| + | [N-]=[N+]=NCCO[C@@H]1O[C@H](CO[C@@H]2O[C@H](CO[C@@H]3O[C@H](CO[C@@H]4O[C@H](CO)[C@@H](O)[C@H](O)[C@H]4O)[C@@H](O)[C@H](O)[C@H]3O)[C@@H](O)[C@H](O)[C@H]2O)[C@@H](O)[C@H](O)[C@H]1O (stereo in doubt) [β-O(CH2)2N3, n=4, 2-Azido ethyl [O-β-D-glucopyranosyl-1,6]3-β-D-glucopyranoside] |
| + | [N-]=[N+]=NCCOC1OC(COC2OC(COC3OC(COC4OC(COC5OC(COC6OC(COC7OC(COC8OC(CO)C(O)C(O)C8O)C(O)C(O)C7O)C(O)C(O)C6O)C(O)C(O)C5O)C(O)C(O)C4O)C(O)C(O)C3O)C(O)C(O)C2O)C(O)C(O)C1O (stereo not drawn) [α-O(CH2)2N3, n=8] |
| + | COC1O[C@H](CO[C@@H]2O[C@H](CO[C@@H]3O[C@H](CO[C@@H]4O[C@H](CO[C@@H]5O[C@H](CO[C@@H]6O[C@H](CO[C@@H]7O[C@H](CO)[C@@H](O)[C@H](O)[C@H]7O)[C@@H](O)[C@H](O)[C@H]6O)[C@@H](O)[C@H](O)[C@H]5O)[C@@H](O)[C@H](O)[C@H]4O)[C@@H](O)[C@H](O)[C@H]3O)[C@@H](O)[C@H](O)[C@H]2O)[C@@H](O)[C@H](O)[C@H]1O (stereo partly drawn) [OCH3, n=7, methyl [O-β-D-glucopyranosyl-1,6]6-D-glucopyranoside] |
| + | COC1O[C@H](CO[C@@H]2O[C@H](CO[C@@H]3O[C@H](CO[C@@H]4O[C@H](CO[C@@H]5O[C@H](CO[C@@H]6O[C@H](CO[C@@H]7O[C@H](CO[C@@H]8O[C@H](CO[C@@H]9O[C@H](CO[C@@H]%10O[C@H](CO[C@@H]%11O[C@H](CO)[C@@H](O)[C@H](O)[C@H]%11O)[C@@H](O)[C@H](O)[C@H]%10O)[C@@H](O)[C@H](O)[C@H]9O)[C@@H](O)[C@H](O)[C@H]8O)[C@@H](O)[C@H](O)[C@H]7O)[C@@H](O)[C@H](O)[C@H]6O)[C@@H](O)[C@H](O)[C@H]5O)[C@@H](O)[C@H](O)[C@H]4O)[C@@H](O)[C@H](O)[C@H]3O)[C@@H](O)[C@H](O)[C@H]2O)[C@@H](O)[C@H](O)[C@H]1O (stereo partly drawn) [OCH3, n=11, methyl [O-β-D-glucopyranosyl-1,6]10-D-glucopyranoside] |
| + | CN(CCCCCN)CC(O)[C@@H](O)[C@H](O)[C@H](O)CO[C@@H]1O[C@H](CO[C@@H]2O[C@H](CO[C@@H]3O[C@H](CO[C@@H]4O[C@H](CO[C@@H]5O[C@H](CO[C@@H]6O[C@H](CO)[C@@H](O)[C@H](O)[C@H]6O)[C@@H](O)[C@H](O)[C@H]5O)[C@@H](O)[C@H](O)[C@H]4O)[C@@H](O)[C@H](O)[C@H]3O)[C@@H](O)[C@H](O)[C@H]2O)[C@@H](O)[C@H](O)[C@H]1O (mixture of isomers) [N(Me),N(CH2)5NH2, n=6] |
| + | OCC1OC(OCC2OC(OCC3OC(OCC4OC(O)C(O)C(O)C4O)C(O)C(O)C3O)C(O)C(O)C2O)C(O)C(O)C1O (stereo not drawn) [OH, n=4] |
| + | O=C(O)c1cc(OCc2cn(CCO[C@H]3O[C@H](CO[C@@H]4O[C@H](CO[C@@H]5O[C@H](CO)[C@@H](O)[C@H](O)[C@H]5O)[C@@H](O)[C@H](O)[C@H]4O)[C@@H](O)[C@H](O)[C@H]3O)nn2)cc(OCc2cn(CCO[C@H]3O[C@H](CO[C@@H]4O[C@H](CO[C@@H]5O[C@H](CO)[C@@H](O)[C@H](O)[C@H]5O)[C@@H](O)[C@H](O)[C@H]4O)[C@@H](O)[C@H](O)[C@H]3O)nn2)c1 [(β-D-glucopyanosy1-1,6)nα-O(CH2)2-, n=3, 3,5-bis(1[2-[O-β-D-glucopyranosyl-(1→6)-O-β-D-glucopyranosyl-(1→6)-α-D-glucopyranosyl]oxy]ethyl-1H-1,2,3-triazol-4-yl)methoxybenzoic acid] |

| Compound | ELISA assay data: glucan active in detection of anti-beta glucan IgG |
| --- | --- |
| N-[6-[(O-(β-D-glucopyranosyl-(1,6))3-β-D-glucopyranosyl](2RS,3R,4R,5R)-2,3,4,5-tetrahydroxyhexyl]-4-piperidylacetic acid [4-piperidine(CH2)CO2H, n=4] | + |
| O=C(O)C1CCN(CC(O)[C@@H](O)[C@H](O)[C@H](O)CO[C@@H]2O[C@H](CO[C@@H]3O[C@H](CO[C@@H]4O[C@H](CO)[C@@H](O)[C@H](O)[C@H]4O)[C@@H](O)[C@H](O)[C@H]3O)[C@@H](O)[C@H](O)[C@H]2O)CC1 (mixture of isomers) [4-piperidineCO2H, n=3, N-[6-[(O-β-D-glucopyranosyl-(1,6))2-β-D-glucopyranosyl](2RS,3R,4R,5R)-2,3,4,5-tetrahydroxyhexyl]piperidine-4-carboxylic acid] | + |
| O=C(O)C1CCN(CC(O)[C@@H](O)[C@H](O)[C@H](O)CO[C@@H]2O[C@H](CO[C@@H]3O[C@H](CO[C@@H]4O[C@H](CO[C@@H]5O[C@H](CO[C@@H]6O[C@H](CO)[C@@H](O)[C@H](O)[C@H]6O)[C@@H](O)[C@H](O)[C@H]5O)[C@@H](O)[C@H](O)[C@H]4O)[C@@H](O)[C@H](O)[C@H]3O)[C@@H](O)[C@H](O)[C@H]2O)CC1 (mixture of isomers) [4-piperidineCO2H, n=5] | + |
